Experiments:
[1] = tested on: RNA having an intronic REMS sequence; test: RNA sequencing of compound-treated cells: iExon inclusion or eExon formation (ΔPSI, Fisher's Exact Test); type: cell-based; settings: cells treated with Compound 64 (24 nm and 100 nm); genes listed in Table 10; adjusted Fisher's Exact Test p value
Description: Techniques known to one skilled in the art may be used to determine the amount of an RNA transcript(s). In some aspects, the amount of one, two, three or more RNA transcripts is measured using deep sequencing, such as ILLUMINA® RNASeq, ILLUMINA® next generation sequencing (NGS), ION TORRENT® RNA next generation sequencing, 454™ pyrosequencing, or Sequencing by Oligo Ligation Detection (SOLID™), Single Molecule, Real-Time (SMRT) sequencing, Nanopore sequencing. In other aspects, the amount of multiple RNA transcripts is measured using an exon array, such as the GENECHIP® human exon array. In certain aspects, the amount of one, two, three or more RNA transcripts is determined by RT-PCR. In other aspects, the amount of one, two, three or more RNA transcripts is measured by RT-qPCR or digital color-coded barcode technology. Techniques for conducting these assays are known to one skilled in the art. […]
Where “U” represents the value for probability of iExon inclusion (a+b)/2/[(a+b)/2+c] in the absence of the compound; and, where “C” represents the value for probability of iExon inclusion (a+b)/2/[(a+b)/2+c] in the presence of the compound. The values for “a” and “b” represent the number of reads supporting inclusion of an iExon in an RNA transcript. […] The value for “c” represents the number of reads supporting exclusion of an iExon. […]

SH-SY5Y cells = test: Endpoint RT-PCR of alternatively spliced mRNAs (iExon inclusion) in cultured cells; type: cell-based, human; settings: cells treated at 10 nM, 1 μM or 10 μM vs DMSO; genes of FIGS. 2A-6A
Description: SH-SY5Y cells derived from a bone marrow biopsy of a patient with neuroblastoma were plated at 600,000 cells/well in 2 mL DMEM with 10% FBS in 6-well plates, and incubated for 4 hours in a cell culture incubator (37° C., 5% CO2, 100% relative humidity). Cells were then treated with Compound 64 at different concentrations (in 0.1% DMSO) for 24 hours. After removal of the supernatant, cells were lysed in RLT buffer with ß-mercaptoethanol and total RNA was extracted according to the manufacturer's protocol (RNeasy Mini Kit, Qiagen, Inc.).
One-step RT-PCR was performed using AgPath-ID™ One-Step RT-PCR Reagents (Life Technologies, Inc.) using 50 ng total RNA as input. The following PCR conditions were used: Step 1: 48° C. (15 min), Step 2: 95° C. (10 min), Step 3: 95° C. (30 sec), Step 4: 55° C. (30 sec), Step 5: 68° C. (1 min), repeat Steps 3 to 5 for 34 cycles, then hold at 4° C. The presence of iExons within alternatively spliced mRNAs was identified using primers listed in Tables 13 through 19, which correspond to FIGS. 2, 3, 4 and 5. PCR products were separated on 2% agarose E-gels (Life Technologies, Inc.), stained with ethidium bromide and visualized using a gel imager (UVP). […]

CC1(C)CC(Oc2ccc(-c3ccc(-c4cn[nH]c4)cc3O)nn2)CC(C)(C)N1 [Compound 64, 5-(1H-pyrazol-4-yl)-2-(6-((2,2,6,6-tetramethylpiperidin-4-yl)oxy)pyridazin-3-yl)phenol]
effect on inclusion of an iExon or formation of an eExon with a corresponding change in isoform abundance [1]: statistically significant | iExon-containing PCR product on agarose gel (SH-SY5Y cells): appearance of a slower migrating PCR product containing the intronic-derived exon

Reference: patent US11608501B2, “Methods for modifying RNA splicing” (PTC THERAPEUTICS, INC., priority 2017, dated 2023)
